Laboratory results reported in patent publication US7884097B2, “Methods and compositions comprising diamines as new anti-tubercular therapeutics” (Sequella, Inc., priority 2003, dated 2011).
Converted amounts (≈) assume the structure as drawn. “Also recorded” adds a separate entry of the source. Where two headings read alike, the source gives them in different places.

Columns and labels:
H37Rv strain of Mtb = assay: microbe, parasite or virus in culture; format: cell-based, M. tuberculosis
Vero monkey kidney cells = assay: In vitro toxicity, MTS assay in Vero cells; format: cell-based; settings: for SI (selectivity index, ratio of IC50:MIC): IC50 Vero cells : MIC
Protocol: Cytotoxicity The Vero cell line (ATCC CCL-8 1) was seeded overnight at 5×10^4 cells per well in 96-well plates at 37° C. and 5% CO2 in EMEM with essential amino acids and glutamine (BioFluids) supplemented with 10% heat-inactivated fetal bovine serum (FBS). Cells were exposed to dilutions of experimental and control drugs in triplicate for 72 hr, with each compound at a range of concentrations from 15-200 μM. Chlorpromazine (Sigma) was run as a control at the same concentrations. CellTiter 96 AQueous Assay (Promega) was used for determination of Vero cell viability. Briefly, a solution of MTS salt (3-(4,5-dimethylthiazol-2-yl)-5-(3-carboxymethoxyphenyl)-2-(4-sulfophenyl)-2H-tetrazolium) and phenazine methosulfate was added to each well and plates were incubated for 2 hr at 37° C. and 5% CO2. Absorbance of each well was read using BioRad microplate reader at 490 nm. Viability (absorbance) of cells in drug-exposed wells was compared to those in drug-free control wells, and a curve relating cell viability to drug concentration was created.

M. tuberculosis = settings: background statement; cited from earlier work
M. tuberculosis H37Rv [1] = assay: Rapid (3 wk) murine model of TB, body weight loss; format: in vivo, mice; settings: for prevention of body weight loss and mortality: mice iv 10^6 CFU, test drugs 10 mg/kg daily by gavage for 10 days, INH 25 or 2.5 mg/kg; for loss of initial body weight: by day 21 following challenge, 10 mg/kg
[2] = tested on: M. tuberculosis in TB-infected mouse macrophage RAW 264.7 cells; assay: Efficacy in TB-infected macrophages, bioluminescence reporter assay; format: cell-based; settings: for efficacy in macrophages compared to standard drugs (words): RAW 264.7, treated 6 days, 4 timepoints, five concentrations; for intracellular activity compared to EMB and INH: RAW 264.7, 7 days, day 7 readout
HepG2 cell line = assay: In vitro cytotoxicity, MTS assay in HepG2 cell line; format: cell-based; settings: Homo sapiens, HepG2 cells
M. tuberculosis H37Rv [3] = assay: Murine model of chronic TB, CFU in lung and spleen; format: in vivo, mice; settings: for activity against M. tuberculosis in vivo: mice, two models (rapid and chronic)
[4] = tested on: recombinant mycobacteria containing a promoter fusion of luciferase to Rv0341; format: cell-based, M. tuberculosis; settings: active = exceeds untreated control by 1.5 times
[5] = list of preferred compounds (FIG. 20)
[6] = cytotoxicity, list of preferred compounds (FIG. 20), read-out: IC50
[7] = Mycobacterium tuberculosis, H37RV, list of preferred compounds (FIG. 20), read-out: MIC
[8] = Primates, Vero, cytotoxicity, list of preferred compounds (FIG. 20), read-out: IC50
[9] = Mycobacterium tuberculosis, H37RV, Examples 4 and 5 and screening summary, read-out: MIC
[10] = Mycobacterium tuberculosis, H37RV, read-out: MIC

## CC(C)=CCC/C(C)=C/CNCCCN1CCCCC1C (stereo not drawn) [#711, 1-(N-Geranyl)-3-Aminopropylpipecoline]
H37Rv strain of Mtb; [5]
  MIC: 6.25 µM (≈ 1.83 µg/mL)

## CC1CCCCN1CCCNCc1ccc(C(F)(F)F)cc1 (stereo not drawn) [#712, 1-(N-(4-Trifluorobenzyl)-3-Aminopropyl)pipecoline]
H37Rv strain of Mtb; [5]
  MIC: 12.5 µM (≈ 3.93 µg/mL)

## Fc1ccccc1N1CCN(C2CCC3CCCCC3C2)CC1 (stereo not drawn) [#765, N-(2-Fluorophenyl)-N′-(2-decalone)piperazine]
Vero monkey kidney cells; [6]
  IC50: 70 µM
H37Rv strain of Mtb
  MIC: 6.25 µM (≈ 1.98 µg/mL)

## CCOc1ccccc1CN1CCN(c2ccccc2F)CC1 [#766, N-(2-Fluorophenyl)-N′-(2-ethoxybenzyl)piperazine]
Vero monkey kidney cells
  SI (selectivity index, ratio of IC50:MIC): 6.08
Vero monkey kidney cells; Primates, Vero
  IC50: 76 µM
H37Rv strain of Mtb; [7]
  MIC: 12.5 µM (≈ 3.93 µg/mL)

## c1ccc(CN2CCN(C3C4CC5CC(C4)CC3C5)CC2)cc1 (stereo not drawn) [#785, N-Benzyl-N′-2-Adamantylpiperazine]
Vero monkey kidney cells
  SI (selectivity index, ratio of IC50:MIC): 7.76
Vero monkey kidney cells; [8]
  IC50: 97 µM
H37Rv strain of Mtb; [7]
  MIC: 12.5 µM (≈ 3.88 µg/mL)

## c1ccc(CN2CCN(C3CCC4CCCCC4C3)CC2)cc1 (stereo not drawn) [#787, N-Benzyl-N′-2-Decalonepiperazine]
Vero monkey kidney cells; [6]
  IC50: 70 µM
H37Rv strain of Mtb; [5]
  MIC: 12.5 µM (≈ 3.91 µg/mL)

## CC[C@@H](CO)NCCN[C@@H](CC)CO [EMB, Ethambutol, reference compound]
M. tuberculosis
  Minimum Inhibition Concentration (MIC): about 5 μg/ml
H37Rv strain of Mtb; [9]
  MIC: 12.5 µM (≈ 2.55 µg/mL)

## NNC(=O)c1ccncc1 [INH, Isoniazid, reference compound]
H37Rv strain of Mtb; [9]
  MIC: 1 µM (≈ 0.137 µg/mL)
M. tuberculosis H37Rv [1]
  prevention of body weight loss and mortality: did not show any signs of body loss

## C1CN(C2C3CC4CC(C3)CC2C4)CCN(C2C3CC4CC(C3)CC2C4)C1 (stereo not drawn) [SQ775, N,N′-Bis(2-Adamantane)homopiperazine]
[2]; listed as 775
  efficacy in macrophages compared to standard drugs (words): as effective as isoniazid
[2]; listed as #775
  efficacy in macrophages compared to standard drugs (words): equal or superior to ethambutol
[2]; intracellular, RAW 264.7, day 7, concentration 2×MIC
  inhibition of bacterial growth: 99%
HepG2 cell line
  IC50: 132 µM
Vero monkey kidney cells
  SI (selectivity index, ratio of IC50:MIC): 16.92
Vero monkey kidney cells; [8]
  IC50: 132 µM
H37Rv strain of Mtb; [9]
  MIC: 6.25 µM (≈ 2.3 µg/mL)
H37Rv strain of Mtb; [7]
  MIC: 7.8 µM (≈ 2.88 µg/mL)
H37Rv strain of Mtb; [10]
  MIC: 7.8 µM (≈ 2.88 µg/mL)
M. tuberculosis H37Rv [3]
  activity against M. tuberculosis in vivo: promising activity against M.tb in vivo; also recorded: efficacious
M. tuberculosis H37Rv [1]
  loss of initial body weight: 4%
  prevention of body weight loss and mortality: prevented body weight loss and delayed mortality
M. tuberculosis H37Rv [1]; one week after chemotherapy withdrawn, 6 mice
  mortality in the group: 50%
M. tuberculosis H37Rv [1]; ten days later, after chemotherapy withdrawal, 3 mice
  loss of initial body weight of mice that remained alive: about 20%

## C1CCCC(N2CCCN(C3CCCCCCC3)CC2)CCC1 [SQ777]
HepG2 cell line
  IC50: 74 µM
H37Rv strain of Mtb; [10]
  MIC: 7.8 µM (≈ 2.5 µg/mL)

## C1CCC2CC(N3CCCN(C4CCC5CCCCC5C4)CC3)CCC2C1 (stereo not drawn) [SQ778, N,N′-Bis(2-Decalone)homopiperazine]
HepG2 cell line
  IC50: 54 µM
Vero monkey kidney cells
  SI (selectivity index, ratio of IC50:MIC): 6.92
Vero monkey kidney cells; [8]
  IC50: 54 µM
H37Rv strain of Mtb; [7]
  MIC: 7.8 µM (≈ 2.91 µg/mL)
H37Rv strain of Mtb; [10]
  MIC: 7.8 µM (≈ 2.91 µg/mL)

## CC1(C)C2CC=C(CN3CCCN(CC4=CCC5CC4C5(C)C)CC3)C1C2 [SQ779]
HepG2 cell line
  IC50: 110 µM
Vero monkey kidney cells
  SI (selectivity index, ratio of IC50:MIC): 14.1
Vero monkey kidney cells; [8]
  IC50: 110 µM
H37Rv strain of Mtb; [7]
  MIC: 7.8 µM (≈ 2.88 µg/mL)
H37Rv strain of Mtb; [10]
  MIC: 7.8 µM (≈ 2.88 µg/mL)

## CCOc1ccccc1CN1CCCN(Cc2ccccc2OCC)CC1 [SQ780, N,N′-Bis(2-Ethoxybenzyl)homopiperazine]
[2]
  intracellular activity compared to EMB and INH: equivalent to or better than EMB, but less active than INH
  efficacy in macrophages compared to standard drugs (words): equal or superior to ethambutol
HepG2 cell line
  IC50: 71 µM
Vero monkey kidney cells
  SI (selectivity index, ratio of IC50:MIC): 18.21
Vero monkey kidney cells; [8]
  IC50: 71 µM
H37Rv strain of Mtb; [9]
  MIC: 1.56 µM (≈ 0.575 µg/mL)
H37Rv strain of Mtb; [7]
  MIC: 1.56 µM (≈ 0.575 µg/mL)
H37Rv strain of Mtb; [10]
  MIC: 3.9 µM (≈ 1.44 µg/mL)
M. tuberculosis H37Rv [3]; 10 mg/kg daily by gavage, 28 days, museum strain of H37Rv
  reduction of CFU in spleen: 1 log
M. tuberculosis H37Rv [3]
  activity against M. tuberculosis in vivo: efficacious
M. tuberculosis H37Rv [1]
  loss of initial body weight: 13%
  prevention of body weight loss and mortality: low efficacy; also recorded: not active

## C=C(C)[C@@H]1CC=C(CN2CCCN(CC3=CC[C@@H](C(=C)C)CC3)CC2)CC1 [SQ781]
H37Rv strain of Mtb; Examples 4 and 5 and screening summary
  MIC: high MIC

## COc1ccccc1CN1CCCN(Cc2ccccc2OC)CC1 [SQ782]
[2]
  intracellular activity compared to EMB and INH: equivalent to or better than EMB, but less active than INH
  efficacy in macrophages compared to standard drugs (words): equal or superior to ethambutol
HepG2 cell line
  IC50: 105 µM
H37Rv strain of Mtb; [9]
  MIC: 6.25 µM (≈ 2.13 µg/mL)
H37Rv strain of Mtb; [10]
  MIC: 7.8 µM (≈ 2.66 µg/mL)

## c1ccc(COc2ccc(CN3CCN(Cc4ccccc4)CC3)cc2)cc1 [SQ786, N -benzyl-N′-(4-benzyloxy)benzylpiperazine]
[4]
  activity in the Luc assay: not active
HepG2 cell line
  IC50: 54 µM
H37Rv strain of Mtb; [9]
  MIC: 3.9 µM (≈ 1.45 µg/mL)
H37Rv strain of Mtb; [10]
  MIC: 3.13 µM (≈ 1.17 µg/mL)
M. tuberculosis H37Rv [3]
  activity against M. tuberculosis in vivo: promising activity against M.tb in vivo; also recorded: efficacious
M. tuberculosis H37Rv [1]
  prevention of body weight loss and mortality: prevented body weight loss and delayed mortality
